Measured values from patent publication US8071506B2, “Synergistic herbicidal composition containing florasulam for weed control in turf” (Dow AgroSciences LLC, priority 2009, dated 2011).

Columns and labels:
Assay in all cases: Field study of weed control in established turfgrass, percent control from visual weed cover
Dandelion (TAROF) = type: in vivo, Taraxacum officinale
Experimental: (§1) Field studies were conducted in established turfgrass sites containing a natural population of target broadleaf weeds. Replicated trials, containing a minimum of three replications and having individual plots ranging in size from 25 to 50 ft. sq, were initiated in the early spring with turf and weeds still in dormancy or just beginning active growth. Studies containing two components (florasulam and dithiopyr or pendimethalin) were timed to coincide with typical preemergent crabgrass (Digitaria sp.) timing at the study location. Studies containing three components (florasulam, dithiopyr or pendimethalin, Trimec (2,4-D+dicamba+MCPP-p) or Scotts Plus 2 (2,4-D+MCPP-p) were timed as previous for the florasulam and dithiopyr or pendimethalin components followed by an application of Trimec or Scotts Plus 2 at peak dandelion bloom which occurs approximately six weeks after a typical preemergent application. Granule treatments were uniformly applied to individual plots using a common hand-shaker or shaker table method. Liquid applications were applied with a CO2 backpack sprayer calibrated to deliver 40 to 100 GPA at 40 to 60 PSI. Applications were generally made in the early morning when dew was present. Natural rainfall and supplemental irrigation were used to maintain healthy turf and active weed growth throughout the study period. Weed control evaluations were made by visually assessing percent weed cover of each weed species in each plot at the initiation of the study and at each evaluation interval, converting to percent control using the following formula: (1−(B/A))*100
(§2) A=percent weed cover at study initiation
(§3) B=percent weed at a specific evaluation interval after application
(§4) Using this method, control ranges occur between 0 and 100 percent where 0 corresponds to no control and 100 corresponds to complete kill. Percent cover of each weed species was made at approximately 2, 4 and 8 weeks after treatment.
(§5) The following equation was used to calculate the expected activity of mixtures containing two active ingredients, A and B: Expected=A+B−(A×B/100)
(§6) A=observed efficacy of active component A at the same concentration as used in the mixture.
(§7) B=observed efficacy of active component B at the same concentration as used in the mixture.
(§8) The following equation was used to calculate the expected activity of mixtures containing three active ingredients, A and B and C: Expected=A+B+C−((A×B)+(A×C)+(B×C)/100)+(A×B×C/10,000)
(§9) C=observed efficacy of active component C at the same concentration as used in the mixture.

White Clover (TRFRE) = type: in vivo, Trifolium repens; conditions: for Observed percent control: Florasulam GR 15 g ai/ha
Experimental: as §1, §2, §3, §4, §5, §6, §7, §8, §9

[1] = system: Buckhorn Plantain (PLALA); type: in vivo, Plantago lanceolata; conditions: 27 DAT in turf; Pendimethalin GR 2300 g ai/ha, Florasulam GR 15 g ai/ha
Experimental: as §1, with “Weed control evaluations were made by visually assessing percent weed cover of each weed species in each plot at the initiation of the study and at each evaluation interval, converting to percent control using the following formula: (1−(B/A))*100” left out

[2] = 36 DAT in turf, Dithiopyr GR 575 g ai/ha, Florasulam GR 15 g ai/ha
[3] = 56 DAT in turf, Dithiopyr GR 575 g ai/ha, Florasulam GR 15 g ai/ha
[4] = 57 DAT in turf, Dithiopyr GR 575 g ai/ha, Florasulam GR 15 g ai/ha, Trimec EC 4 Pt/A
[5] = 58 DAT in turf, Dithiopyr 2EW 575 g ai/ha, Florasulam SC 15 g ai/ha
[6] = 59 DAT in turf, Dithiopyr GR 575 g ai/ha, Florasulam GR 15 g ai/ha, Trimec EC 4 Pt/A
[7] = 64 DAT in turf, Dithiopyr GR 575 g ai/ha, Florasulam GR 15 g ai/ha, Trimec EC 4 Pt/A
[8] = 91 DAT in turf, Dithiopyr GR 575 g ai/ha, Florasulam GR 15 g ai/ha
[9] = 28 DAT in turf, Dithiopyr GR 575 g ai/ha
[10] = 36 DAT in turf, Dithiopyr GR 575 g ai/ha
[11] = 62 DAT in turf, Dithiopyr GR 575 g ai/ha
[12] = 60 DAT in turf, Pendimethalin GR 2300 g ai/ha, Florasulam GR 15 g ai/ha, Scotts Plus 2 125 Lb/A
[13] = applications made at the preemergent herbicide application timing
[14] = 55 DAT in turf, Pendimethalin GR 2300 g ai/ha, Scotts Plus 2 125 Lb/A

SMILES	Observed percent control (Dandelion (TAROF); [2]) [%]	Observed percent control (Dandelion (TAROF); [3]) [%]	Observed percent control (Dandelion (TAROF); [4]) [%]	Observed percent control (Dandelion (TAROF); [5]) [%]	Observed percent control (Dandelion (TAROF); [6]) [%]	Observed percent control (Dandelion (TAROF); [7]) [%]	Observed percent control (Dandelion (TAROF); [8]) [%]	Observed percent control (White Clover (TRFRE); [9]) [%]	Observed percent control (White Clover (TRFRE); [10]) [%]	Observed percent control (White Clover (TRFRE); [11]) [%]	Observed percent control (Dandelion (TAROF); [12]) [%]	Control of dandelion, in words (Dandelion (TAROF); [13])	Observed percent control (White Clover (TRFRE); [14]) [%]	Control of white clover, in words (White Clover (TRFRE); [13])	Observed percent control [1] [%]
CSC(=O)c1c(C(F)F)nc(C(F)(F)F)c(C(=O)SC)c1CC(C)C [Dithiopyr, S,S′-dimethyl 2-(difluoromethyl)-4-(2-methylpropyl)-6-(trifluoromethyl)-3,5-pyridinedicarbothioate]	0	29	21	21.7	27	0	19	0	0	0	–	–	–	–	–
COc1ncc(F)c2nc(S(=O)(=O)Nc3c(F)cccc3F)nn12 [Florasulam, N-(2,6-difluorophenyl)-8-fluoro-5-methoxyl[1,2,4]triazolo[1,5-c]pyrimidine-2-sulfonamide]	20	0	31	70	0	30	18	86.8	73	0	20.6	effectively controls	62.5	effectively controls	26.7
CCC(CC)Nc1c([N+](=O)[O-])cc(C)c(C)c1[N+](=O)[O-] [Pendimethalin, N-(1-ethylpropyl)-3,4-dimethyl-2,6-dinitrobenzenamine]	–	–	–	–	–	–	–	–	–	–	21	–	0	–	0
